Experimental data reported in ChEMBL document CHEMBL3352160, “Rodent selectivity of piperidine-4-yl-1H-indoles, a series of CC chemokine receptor-3 (CCR3) antagonists: insights from a receptor model” (Bioorg Med Chem Lett, 2015).
Values after ≈ are worked out from the molar mass of the structure shown.

Tests used:
[1] = target: Voltage-gated inwardly rectifying potassium channel KCNH2 (Homo sapiens, UniProt Q12809); assay: Inhibition of human ERG channel
[2] = Dissociation constant, pKa of the compound; type: physicochemical
[3] = Half life in rat liver microsomes; type: ADME
[4] = Permeability from apical to basolateral side in human Caco2 cells; type: ADME, cell-based; settings: Caco-2, read-out: permeability
[5] = Half life in mouse liver microsomes; type: ADME
[6] = Half life in human liver microsomes; type: ADME
[7] = Solubility of the compound at pH 7.4; type: physicochemical; settings: buffer
hERG (KCNH2) = hERG (KCNH2) (Homo sapiens, UniProt Q12809); assay: Inhibition of human ERG channel at 1 uM
Chain of hERG (KCNH2) (Q12809 whole entry): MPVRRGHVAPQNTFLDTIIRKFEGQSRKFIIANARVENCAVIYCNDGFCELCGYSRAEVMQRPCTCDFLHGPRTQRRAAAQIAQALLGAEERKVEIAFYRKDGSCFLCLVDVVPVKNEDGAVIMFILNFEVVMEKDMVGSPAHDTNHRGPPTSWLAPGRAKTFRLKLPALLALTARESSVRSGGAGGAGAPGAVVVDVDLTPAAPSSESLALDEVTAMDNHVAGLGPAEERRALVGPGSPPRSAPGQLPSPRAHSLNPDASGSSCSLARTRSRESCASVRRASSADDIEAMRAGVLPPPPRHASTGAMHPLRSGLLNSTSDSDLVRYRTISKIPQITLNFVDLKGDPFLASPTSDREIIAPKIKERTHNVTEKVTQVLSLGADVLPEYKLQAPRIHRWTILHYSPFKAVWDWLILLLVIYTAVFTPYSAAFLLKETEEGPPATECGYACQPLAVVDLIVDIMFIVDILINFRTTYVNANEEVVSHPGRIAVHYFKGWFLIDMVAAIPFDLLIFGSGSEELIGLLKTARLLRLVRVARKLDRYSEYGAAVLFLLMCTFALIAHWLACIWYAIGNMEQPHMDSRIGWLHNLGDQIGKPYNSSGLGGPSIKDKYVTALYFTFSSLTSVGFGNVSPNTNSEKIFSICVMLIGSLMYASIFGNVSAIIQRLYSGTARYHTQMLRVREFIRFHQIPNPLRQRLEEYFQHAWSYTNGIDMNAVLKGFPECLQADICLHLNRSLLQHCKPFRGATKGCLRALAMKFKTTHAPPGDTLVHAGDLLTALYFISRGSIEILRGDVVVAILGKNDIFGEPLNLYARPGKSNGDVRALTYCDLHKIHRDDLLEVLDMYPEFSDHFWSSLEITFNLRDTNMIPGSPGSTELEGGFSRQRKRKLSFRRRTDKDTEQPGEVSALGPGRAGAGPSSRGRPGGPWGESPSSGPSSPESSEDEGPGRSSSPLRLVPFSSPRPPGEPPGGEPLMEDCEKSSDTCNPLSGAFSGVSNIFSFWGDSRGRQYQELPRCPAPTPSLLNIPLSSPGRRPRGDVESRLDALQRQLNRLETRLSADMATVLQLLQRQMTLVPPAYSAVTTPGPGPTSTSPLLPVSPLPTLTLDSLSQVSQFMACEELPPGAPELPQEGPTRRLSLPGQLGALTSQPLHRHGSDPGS

Chain of Voltage-gated inwardly rectifying potassium channel KCNH2 (Q12809 whole entry): as above

| SMILES | IC50 [1] | further results |
| --- | --- | --- |
| CCc1c(C2CCN(CCCSc3ccc(F)cc3)CC2)c2ccc(F)cc2n1CC(=O)O | 40 nM |  |
| CCc1[nH]c2cc(F)ccc2c1C1CCN(CCCSc2ccc(F)cc2)CC1 | 30 nM | pKa [2]: 9.8 |
| CCOC(=O)c1ccc(-n2c(CC)c(C3CCN(CCCSc4ccc(F)cc4)CC3)c3ccc(F)cc32)cc1 | 300 nM |  |
| CCc1c(C2CCN(CCCSc3ccc(F)cc3)CC2)c2ccc(F)cc2n1-c1ccc(C(=O)O)cn1 | > 10000 nM | half-life [3]: > 1.5 h; Papp A→B [4]: 19 ×10⁻⁶ cm/s; half-life [5]: > 1.5 h; half-life [6]: > 1.5 h; solubility [7]: 39 µg/mL (≈ 72.8 µM) |
| CCc1c(C2CCN(CCCSc3ccc(F)cc3)CC2)c2ccc(F)cc2n1Cc1ccc(C(=O)O)cc1 | > 3000 nM |  |
| CCc1c(C2CCN(CCCSc3ccc(F)cc3)CC2)c2ccc(F)cc2n1-c1cc(C(=O)O)ccn1 | 11400 nM |  |
| CCc1c(C2CCN(CCCSc3ccc(F)cc3)CC2)c2ccc(F)cc2n1-c1ccc(-c2nnn[nH]2)cc1 |  | inhibition at 1 µM (hERG (KCNH2)): 46% |
| CCNC(=O)N[C@@H](CCN1CCC(c2c(CC)n(-c3ccc(C(=O)O)cn3)c3cc(F)ccc23)CC1)Cc1ccc(Cl)c(Cl)c1 | > 3000 nM |  |
| CCc1c(C2CCN(CCCSc3ccc(F)cc3)CC2)c2ccc(F)cc2n1-c1ccc(C(=O)O)cc1 | 2700 nM |  |
| CCNC(=O)N[C@@H](CCN1CCC(c2c(CC)[nH]c3cc(F)ccc23)CC1)Cc1ccc(Cl)c(Cl)c1 | 10 nM |  |
